Tests used:
[1] = test system: polyglutamine aggregates of HA-Q79-GFP expressing cells; test: Filter assay (0.2 μm acetate filter); type: cell-based
Protocol: FIG. 6D is a scanned image of a filter showing the effect of Congo red on pre-formed oligomers as assessed by the filter assay described herein. Cells were treated with PBS or 100 μM of Congo red 6 hours after transfection with Q79-GFP. Lysates from these cells were obtained 42 hours later, and passed through a 0.2 micron pore filter. In addition, Q79 aggregates were treated with Congo red after they were recovered from cells to test for disruption of pre-formed aggregates.
FIG. 7C is an image of an immunoblot of lysates from Q79 expressing cells that were treated with PBS or Congo red during or after transfection, as indicated in the Figure and passed through a 0.2 micron filter. Endogenous caspase-8 and the adapter protein FADD were trapped in the filter in cell lysates containing oligomerized polyglutamine repeats, and probed using a caspase-8 or FADD antibody.
To further confirm the ability of Congo red to inhibit the formation of polyglutamine aggregates, as well as to disrupt preformed aggregates, we analyzed the state of polyglutamine aggregation by examining equal aliquots of total lysates from Congo-red- or vehicle-treated HA-Q79-GFP expressing cells, or the lysates that were treated with Congo red or vehicle after cell lysis. The cell lysates were passed through a 0.2 μm acetate filter and then visualized by immunostaining with anti-HA antibody (FIG. 6D).

[2] = test system: non-transfected HeLa cells; test: Total cellular protein degradation; type: cell-based; settings: Congo red 100 μM, ZVAD 100 μM, MG132 10 μM; H3-tyrosine release, 0 to 180 minutes
Protocol: FIG. 8C is a graph of the effect of effect of Congo red, ZVAD, or the proteosome inhibitor MG132 on total cellular protein degradation in non-transfected HeLa cells.
To rule out the possibility that Congo red may have an effect on protein degradation in general, we tested the effect of Congo red on proteosome degradation. Rates of total cellular protein degradation experiments, from cells seeded in 12 well dishes at 2×10^4, treated with Congo red (100 μM), ZVAD (100 μM), or the proteosome inhibitor MG132 (10 μM) and labeled with 5 μCi/ml of H^3-tyrosine for 1 hour. One hundred microliter culture medium aliquots were collected at 0, 30, 60, 90, 120, and 180 minute time points, and the levels of H^3-tyrosine were determined using an LS6000 scintillation counter (Beckman, Co).

[3] = test system: R62 mice and wild-type mice; test: Body weight; type: in vivo
From the text: FIG. 10A is a graph showing the effect of Congo red or PBS (vehicle) on body weight in HD transgenic mice between 9 and 11 weeks of age (top graph) and between 9 and 13 weeks of age (bottom graph). Mice were infused intraperitoneally (IP) or by intracerebroventricular cannula (ICV) implanted into the predetermined coordinates on the left ventricle, or by both routes.
In addition, the ability of Congo red to inhibit the formation as well as to disrupt preformed polyglutamine oligomers allowed us to examine the role of polyglutamine aggregates in neuronal dysfunction and degeneration characteristic of polyglutamine expansion diseases. In these studies, we used the animal model of Huntington's disease (R62), which expresses the truncated form of huntingtin with 139 CAG repeats Mangiarini et al. (supra). We took advantage of our finding that in addition to inhibiting polyglutamine oligomerization, Congo red also disrupts pre-formed oligomers, thus allowing assessment of the impact of Congo red on disease progression after formation of polyglutamine aggregates and the onset of symptoms. […]
One of the common features of Huntington's disease is severe weight loss, proposed to be due to metabolic defects as a part of the systemic pathology of the expanded polyglutamine repeat diseases. We monitored the body weight of mice before and after treatment (FIG. 10A).

R62 mice = test: EM48 immunostaining of polyglutamine aggregates in brain; type: in vivo
Protocol: To test whether Congo red can disrupt and inhibit the formation of expanded polyglutamine oligomers in vivo, we analyzed the brain samples from control- and Congo red-treated […] mice. Mice were anesthetized with isoflurane, perfused intracardially with 4% paraformaldehyde in phosphate buffered saline (pH 7.4). The brain was removed and washed several times in PBS before overnight incubation in PBS containing 30% sucrose, and was then embedded in OTC (Sigma, MO.). Cryostat frozen sections were washed in PBS, and non-specific binding was blocked with 5% normal goat serum in PBS containing 0.1% Triton. Sections were stained using an anti-EM48 antibody at a 1:1000 dilution, and immunoreactivity was detected using the ABC kit, as described by the manufacturer (Vector, Co.). Some slides were lightly counter stained with hematoxylin.

## Nc1c(/N=N/c2ccc(-c3ccc(/N=N/c4cc(S(=O)(=O)O)c5ccccc5c4N)cc3)cc2)cc(S(=O)(=O)O)c2ccccc12 [Congo red, diphenyldiazo-bis-alpha-napthylaminesulfonate]
[1]; cell lysates treated with Congo red after cell lysis
  polyglutamine aggregates retained by 0.2 μm filter, lysates treated: undetectable
[1]; cells treated with Congo red (100 μM) 6 hours after transfection
  polyglutamine aggregates retained by 0.2 μm filter, cells treated: undetectable
[1]; lysates of Q79 expressing cells
  FADD and caspase-8 in a complex retained by 0.2 μm filter: not in Congo red-treated lysates
[2]
  general protein degradation: neither Congo red nor ZVAD had any effect
[3]; 9 to 13 weeks, versus vehicle treated wild-type mice
  body weight, wild-type mice: no change in body weight
[3]; ICV or IP route of delivery
  loss of body weight, expanded polyglutamine repeat expressing mice: significantly ameliorated
R62 mice; R62 mice
  EM48 positive polyglutamine aggregates in the cortex and hippocampus: reduction of EM48 positive polyglutamine aggregates
R62 mice; R62 mice 12.5 weeks old
  expanded polyglutamine repeats in the basal ganglia (EM48): Extensive clearance of expanded polyglutamine repeats
